{
  "source": "patent US20130338183A1",
  "about": "“COMPOSITIONS AND METHODS FOR MOBILIZING STEM CELLS” (The Johns Hopkins University, priority 2010, published 2013)",
  "system": "Lin-CD133+ cells in peripheral blood",
  "experiment": "Mobilization of bone marrow stem cells: Lin-CD133+ cells in peripheral blood by CBC and flow cytometry after subcutaneous injection",
  "assay_type": "in vivo",
  "settings": "low dose FK-506 (0.05 mg/kg, 0.1 mg/kg) subcutaneous, 3 hours after injection, Lewis rats",
  "excerpt": "Rat Strains and Care. Lewis (RT1^1) rats were purchased from Harlan ague-Dawley (Indianapolis, Ind.) and used at 8-10 weeks of age. Animals were maintained in the specific pathogen-free facility of Johns Hopkins Medical Institutions. Animals were cared for according to NIH guidelines and under a protocol approved by the Johns Hopkins University Animal Care Committee.\nExperimental Groups and Animal Treatment. Lewis rats were divided by six groups including control group (treated with same volume of saline) and low dose of FK-506 (0.05 mg, 0.1 mg or 1.0 mg/kg). FK506 was injected subcutaneously. Animals were sacrificed at 3 hours after injection. Spleen and peripheral blood were collected. Blood cell count was performed in animal pathology laboratory at Johns Hopkins.\nFlow Cytometry. Single-cell suspensions (5×10^5) of peripheral blood monocytes were analyzed for lineage negative and CD133 expression. Nonspecific antibody binding was blocked with goat and rat serum (Sigma) for 30 minutes.\nIn this study, lineage negative (Lin−) CD133+ stem cell population in peripheral blood and spleen were quantified after FK-506 treatment. Complete blood count (CBC) was measured and stem cell markers were quantified by flow cytometry. The absolute number of stem cells was calculated as WBC (−thous./uL)×% of stem cells.",
  "data": [
    {"smiles": "C=CC[C@@H]1/C=C(\\C)C[C@H](C)C[C@H](OC)[C@H]2O[C@@](O)(C(=O)C(=O)N3CCCC[C@H]3C(=O)O[C@H](/C(C)=C/[C@@H]3CC[C@@H](O)[C@H](OC)C3)[C@H](C)[C@@H](O)CC1=O)[C@H](C)C[C@@H]2OC", "note": "[FK-506, Tacrolimus]", "values": [
      {"measurement": "increase of absolute number of Lin-CD133+ cells in peripheral blood compared to saline treated animals", "result": "about 3 times"}
    ]}
  ]
}
